Values after ≈ are worked out from the molar mass of the structure shown.
What was measured:
USP7 [1] = biological target: T1, USP7 (Homo sapiens (Human), UniProt Q93009); test: USP7 fluorescence polarisation (FP) assay with ubiquitin-Lys-TAMRA substrate; assay type: biochemical
USP7 [2] = biological target: T1, USP7; test: Target engagement assay-HTRF, competition with HA-Ub-VPS probe in HEK293 cells stably expressing Flag-tagged USP7; assay type: cell-based; conditions: HEK293 stable clone M6C5, 2 h treatment; read-out: Cellular target engagement: HEK293 Stable clone M6C5 USP7 IC50
Experimental: HEK293 cells stably expressing Flag-tagged USP7 were treated with vehicle (DMSO) or compound (using 50 μM starting concentration and 11 dp using 1:3 serial dilution) for 2 h and subsequently lysed on ice and homogenised. Cell lysate and HA-Ub-VPS probe was then added to a white flat bottomed 384 well plate (Greiner) to a total volume of 10 μL and incubated for 40 min. 10 μL of D2 and Tb detection antibodies were subsequently added to give a final assay volume of 20 μL. Following incubation, HTRF were measured using a Pherastar FSX (BMG Labtech) exciting at 337 nm and measuring the emission at 620/665 nm. The HTRF ratiometric signal was derived and subsequently normalised to the lysate only controls. Data were plotted and fitted, and the concentrations resulting in 50% inhibition (IC50) were calculated using the non-linear regression curve fitting model using GraphPad Prism. IC50 values for the inhibitors of the invention are compiled in Table 1 above and represent the average of at least duplicate experiments.

[3] = Kinetic solubility in PBS buffer; assay type: physicochemical; conditions: aqueous buffer, kinetic from dmso stock; PBS buffer pH 7.4
Experimental: Test compounds (5 μL; 10 mM DMSO stock) were added to 245 μL of PBS buffer pH 7.4 (Dulbecco A) in a Millipore MultiScreen® Solubility Filter plate and mixed at 300 rpm at room temperature on a plate shaker for 90 minutes. Meanwhile 5-points calibration curves for each compound were established in a mixture of acetonitrile/PBS buffer (top concentration 200 μM). After filtration and matrix match, the calibration and assay plates were analysed on a BMG Labtech CLARIOstar plate reader (240-400 nm). Final concentration of the test compound in the filtrate was calculated using the slope of the calibration curve.

[4] = CLint/CLhep estimates using liver microsomes (human); assay type: in vitro ADME
Experimental: (§1) Test compounds (final concentration=1 μM; final DMSO concentration=0.1%) were incubated in 0.1M phosphate buffer pH 7.4 with liver microsomes (human, mouse, rat or dog; 0.5 mg of protein/mL) at 37° C. Reactions were started by addition of NADPH in 0.1M phosphate buffer pH 7.4 (final concentration 1 mM). 40 μL aliquots were removed at 3, 6, 10, 15, 20, 30, 40 and 50 minutes. Reactions were quenched in 80 μL of ice-cold methanol. Samples were subsequently frozen overnight then centrifuged at 3500 rpm for 20 minutes at 4° C. The supernatants were removed and transferred into analytical plates and analysed by LC/MS/MS.
(§2) All samples were analysed on a Waters Acquity I-Class coupled to a Waters Xevo TQD mass spectrometer. A Waters BEH C18 2.1×50 mm 1.7 μm column was used and mobile phases were water and methanol containing 0.1% formic acid as modifier. Analysis was by multiple reaction monitoring and conditions were optimised for each test compound.
(§3) From a plot of In peak area against time, the gradient of the line is determined.
(§4) Subsequently, half-life and intrinsic clearance are calculated using the equations below: […]
(§5) The CLhep was calculated as follows: […]
(§6) Where CLint (mL/min/kg) is the intrinsic clearance scaled to a whole liver and Qh is hepatic liver blood flow.

[5] = CLint/CLhep estimates using liver microsomes (rat); assay type: in vitro ADME
Experimental: as §1, §2, §3, §4, §5, §6

[6] = CLint/CLhep estimates using liver microsomes (mouse); assay type: in vitro ADME
Experimental: as §1, §2, §3, §4, §5, §6

[7] = CLint/CLhep estimates using liver microsomes (dog); assay type: in vitro ADME
Experimental: as §1, §2, §3, §4, §5, §6

[8] = Pharmacokinetic (PK) parameters in mouse; assay type: in vivo, BALB/c mouse; conditions: for AUC(0-inf) / half-life / Vd: blood; for Vd: read-out: Vss
[9] = average of at least duplicate experiments, read-out: Biochemical: USP7 IC50
[10] = biochemical inhibition, read-out: USP7 IC50 activity (Table 3a, classes)
[11] = biochemical inhibition, unit not given in Table 3b (Table 1 and key of Table 3a use μM), read-out: USP7 IC50 activity (Table 3b)

T1 sequence (Q93009 whole entry): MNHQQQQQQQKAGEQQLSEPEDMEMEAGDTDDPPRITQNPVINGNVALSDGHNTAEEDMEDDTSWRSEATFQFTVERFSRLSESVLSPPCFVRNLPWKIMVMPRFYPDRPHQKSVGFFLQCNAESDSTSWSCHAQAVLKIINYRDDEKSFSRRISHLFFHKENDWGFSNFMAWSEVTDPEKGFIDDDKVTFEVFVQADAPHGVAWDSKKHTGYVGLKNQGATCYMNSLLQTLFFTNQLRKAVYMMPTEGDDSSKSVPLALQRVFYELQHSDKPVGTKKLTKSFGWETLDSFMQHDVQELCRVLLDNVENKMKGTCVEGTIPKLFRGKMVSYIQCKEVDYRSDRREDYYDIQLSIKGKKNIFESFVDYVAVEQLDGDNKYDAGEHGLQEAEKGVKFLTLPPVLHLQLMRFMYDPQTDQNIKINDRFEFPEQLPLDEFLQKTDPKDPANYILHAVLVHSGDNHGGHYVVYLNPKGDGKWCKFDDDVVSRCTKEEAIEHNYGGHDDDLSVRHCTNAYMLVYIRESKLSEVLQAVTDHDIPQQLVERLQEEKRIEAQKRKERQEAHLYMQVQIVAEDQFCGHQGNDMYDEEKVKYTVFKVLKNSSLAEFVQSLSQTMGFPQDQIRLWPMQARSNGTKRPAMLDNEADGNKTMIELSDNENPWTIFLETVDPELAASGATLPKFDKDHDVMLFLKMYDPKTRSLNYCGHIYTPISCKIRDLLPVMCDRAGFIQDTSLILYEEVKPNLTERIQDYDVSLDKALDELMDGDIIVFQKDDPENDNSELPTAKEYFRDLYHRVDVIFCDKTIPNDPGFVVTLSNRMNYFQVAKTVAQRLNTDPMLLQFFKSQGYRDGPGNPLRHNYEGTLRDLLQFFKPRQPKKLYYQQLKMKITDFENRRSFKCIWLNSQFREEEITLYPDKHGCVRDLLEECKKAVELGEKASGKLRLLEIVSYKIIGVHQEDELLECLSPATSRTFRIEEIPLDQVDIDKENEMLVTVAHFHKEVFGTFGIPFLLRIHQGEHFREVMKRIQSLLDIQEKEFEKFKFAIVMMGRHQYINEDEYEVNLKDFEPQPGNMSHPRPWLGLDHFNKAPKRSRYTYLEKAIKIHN

Structure (SMILES)	IC50 (USP7 [1]; [9])	IC50 (USP7 [1]; [10])	IC50 (USP7 [1]; [11])	IC50 (USP7 [2])	solubility kinetic at 90 min [3]	Liver Microsomes: CLhep Human [4]	Liver Microsomes: CLhep Rat [5]	Liver Microsomes: CLhep Mouse [6]	Liver Microsomes: CLhep Dog [7]	CLb ([8]; BALB/c mouse IV 1 mg/kg)	F ([8]; BALB/c mouse PO 3 mg/kg)	AUC(0-inf) ([8]; BALB/c mouse IV 1 mg/kg)	half-life ([8]; BALB/c mouse IV 1 mg/kg)	Vd ([8]; BALB/c mouse IV 1 mg/kg)	AUC(0-inf) ([8]; BALB/c mouse PO 3 mg/kg)
C[C@H]1CN[C@H](c2ccc(-n3c(Cl)cc4c(=O)n(CC5(O)CCN(C(=O)[C@]6(C)C[C@H]6C(F)(F)F)CC5)cnc43)cc2)CO1 (single isomer, unassigned) [Example 32, 6-Chloro-3-((4-hydroxy-1-((1S,2S)-1-methyl-2-(trifluoromethyl)cyclopropane-1-carbonyl)piperidin-4-yl)methyl)-7-(4-((3R,6S)-6-methylmorpholin-3-yl)phenyl)-3,7-dihydro-4H-pyrrolo[2,3-d]pyrimidin-4-one or 6-chloro-3-((4-hydroxy-1-((1R,2R)-1-methyl-2-(trifluoromethyl)cyclopropane-1-carbonyl)piperidin-4-yl)methyl)-7-(4-((3R,6S)-6-methylmorpholin-3-yl)phenyl)-3,7-dihydro-4H-pyrrolo[2,3-d]pyrimidin-4-one]	0.048 µM	< 0.1 µM	0.048 µM	130 nM	197 µM (≈ 120 µg/mL)	5.8 mL/min/kg	6.5 mL/min/kg	11.5 mL/min/kg	4.5 mL/min/kg	28.2 mL/min/kg	116%	591 ng·h/mL	3.5 h	5.49 L/kg	2100 ng·h/mL
CC1(C(=O)N2CCC(O)(Cn3cnc4c(cc(Cl)n4-c4cccc(N5CCOCC5)c4)c3=O)CC2)CC1 [Comparative Example, reference compound]	0.19 µM	–	–	> 50000 nM	151 µM (≈ 79.4 µg/mL)	14.5 mL/min/kg	27 mL/min/kg	63.9 mL/min/kg	22.3 mL/min/kg	–	–	–	–	–	–
C[C@H]1CN[C@H](c2ccc(-n3c(Cl)cc4c(=O)n(CC5(O)CCN(C(=O)c6ccc(F)cc6)CC5)cnc43)cc2)CO1 [Example 21, 6-Chloro-3-((1-(4-fluorobenzoyl)-4-hydroxypiperidin-4-yl)methyl)-7-(4-((3R,6S)-6-methylmorpholin-3-yl)phenyl)-3,7-dihydro-4H-pyrrolo[2,3-d]pyrimidin-4-one]	0.11 µM	0.1 to 0.25 µM	0.108 µM	180 nM	203 µM (≈ 118 µg/mL)	3.2 mL/min/kg	6.5 mL/min/kg	19.1 mL/min/kg	4.5 mL/min/kg	35.1 mL/min/kg	40.3%	479 ng·h/mL	2.09 h	3.89 L/kg	593 ng·h/mL

From patent US20250122223A1, “HETEROCYCLIC COMPOUNDS AS UBIQUITIN SPECIFIC PROTEASE 7 INHIBITORS” (ALMAC DISCOVERY LIMITED, priority 2022, published 2025)
